# Patent US9278915B2, “Agonists of GPR40” (CONNEXIOS LIFE SCIENCES PVT LTD, priority 2010, dated 2016)
# Biological target: T1, hGPR40 (Homo sapiens, UniProt O14842)
# T1 construct: expressed in transfected cells
# Test: Calcium flux assay to detect GPR40 activation
# Format: cell-based
# Conditions: CHO-K cells stably expressing hGPR40; Fluo-4 NW; read for 4 min at 5 s intervals
# In short: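 CHO-K cells stably expressing hGPR40 were cultured 24 h at 37 °C and loaded with Fluo-4 NW for 30 min at 37 °C plus 30 min at RT. Compounds diluted in HEPES buffer were added, and calcium fluorescence was recorded for 4 min at 5 s intervals.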
# T1 sequence (O14842 whole entry): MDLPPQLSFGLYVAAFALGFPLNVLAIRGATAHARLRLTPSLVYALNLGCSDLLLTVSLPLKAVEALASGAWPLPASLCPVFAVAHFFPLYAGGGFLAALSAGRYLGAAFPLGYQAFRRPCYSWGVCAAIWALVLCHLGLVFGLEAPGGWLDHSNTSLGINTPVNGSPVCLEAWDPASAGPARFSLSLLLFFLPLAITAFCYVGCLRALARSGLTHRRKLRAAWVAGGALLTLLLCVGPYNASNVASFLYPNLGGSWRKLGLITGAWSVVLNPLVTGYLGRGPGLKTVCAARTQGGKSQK
row,SMILES,EC50 [nM]
1,"CO/N=C(\COc1ccc(COc2ccc(C(C#N)CC(=O)O)cc2)cc1)C1CC1 (stereo not drawn) [Compound 105, 3-Cyano-3-{4-[(4-{[(2Z)-2-cyclopropyl-2-(methoxyimino)ethyl]oxy}benzyl)oxy]phenyl}propanoic acid]",> 100
2,"CO/N=C(\COc1ccc(COc2ccc(CCC(=O)O)cc2)cc1)c1sc2c(c1C)C(C)(C)CCC2(C)C [Compound 106, 3-{4-[(4-{[(2E)-2-(Methoxyimino)-2-(3,4,4,7,7-pentamethyl-4,5,6,7-tetrahydro-1-benzothiophen-2-yl)ethyl]oxy}benzyl)oxy]phenyl}propanoic acid]",> 100
3,"N#CC(CC(=O)O)c1ccc(OCc2ccc(OC/C(=N\Oc3ccccc3)c3ccccc3)cc2)cc1 (stereo not drawn) [Compound 107, 3-Cyano-3-{4-[(4-{[(2E,2Z)-2-(phenoxyimino)-2-phenylethyl]oxy}benzyl)oxy]phenyl}propanoic acid]",10 to 100
4,"O=C(O)CCc1ccc(OCc2ccc(OC/C(=N\OCc3ccccc3)c3ccccc3)cc2)cc1 [Compound 108, 3-(4-{[4-({(2E,2Z)-2-[(Benzyloxy)imino]-2-phenylethyl}oxy)benzyl]oxy}phenyl) propanoic acid]",10 to 100
5,"N#CC(CC(=O)O)c1ccc(OCc2ccc(OC/C(=N\O)c3ccccc3)cc2)cc1 (stereo not drawn) [Compound 109, 3-Cyano-3-{4-[(4-{[(2Z)-2-(hydroxyimino)-2-phenylethyl]oxy}benzyl)oxy]phenyl}propanoic acid]",> 100
6,"C=CCO/N=C(\COc1ccc(COc2ccc(CCC(=O)O)cc2)cc1)c1ccccc1 [Compound 110, 3-(4-{[4-({(2E,2Z)-2-Phenyl-2-[(prop-2-en-1-yloxy)imino]ethyl}oxy)benzyl]oxy}phenyl)propanoic acid]",< 10
7,"N#CC(CC(=O)O)c1ccc(OCc2ccc(OC/C(=N\OC3CCCCC3)c3ccccc3)cc2)cc1 (stereo not drawn) [Compound 111, 3-Cyano-3-(4-{[4-({(2Z)-2-[(cyclohexyloxy)imino]-2-phenylethyl}oxy)benzyl]oxy}phenyl)propanoic acid]",10 to 100
8,"CO/N=C(\COc1ccc(COc2ccc(C(CC(=O)O)c3ccccc3)cc2)cc1)c1ccccc1 (stereo not drawn) [Compound 112, 3-{4-[(4-{[(2Z)-2-(Methoxyimino)-2-phenylethyl]oxy}benzyl)oxy]phenyl}-3-phenylpropanoic acid]",> 100
9,"CON=C(COCC1CCC(COc2ccc(CCC(=O)O)cc2)CC1)c1ccccc1 (stereo not drawn) [Compound 113, 3-(4-{[4-({[(2E,2Z)-2-(Methoxyimino)-2-phenylethyl]oxy}methyl)cyclohexyl]methoxy}phenyl)propanoicacid]",> 100
10,"CO/N=C(\COc1ccc(COc2ccc(CCC(=O)O)cn2)cc1)c1ccccc1 [Compound 114, 3-{6-[(4-{[(2Z)-2-(Methoxyimino)-2-phenylethyl]oxy}benzyl)oxy]pyridin-3-yl}propanoic acid]",> 100

# Now from value to compound:
row,EC50 [nM],SMILES
1,> 100,"CO/N=C(\COc1ccc(-c2ccc(CCC(=O)O)cc2)cc1)c1ccccc1 [Compound 115, 3-(4′-{[(2Z)-2-(Methoxyimino)-2-phenylethyl]oxy}biphenyl-4-yl)propanoic acid]"
2,> 100,"CO/N=C(\COc1ccc(COc2ccc(OCC(=O)O)cc2)cc1)c1ccccc1 [Compound 117, {4-[(4-{[(2Z)-2-(Methoxyimino)-2-phenylethyl]oxy}benzyl)oxy]phenoxy}acetic acid]"
3,> 100,"CO/N=C(\COc1ccc(COc2ccc(C(O)CC(=O)O)cc2)cc1)c1ccccc1 (stereo not drawn) [Compound 118, 3-Hydroxy-3-{4-[(4-{[(2Z)-2-(methoxyimino)-2-phenylethyl]oxy}benzyl)oxy]phenyl}propanoic acid]"
4,> 100,"CO/N=C(\COc1ccc(COc2ccc(C(O)CC(=O)O)cc2)cc1)c1ccccc1 (stereo not drawn) [Compound 119, 3-Hydroxy-3-{4-[(4-{[(2Z)-2-(methoxyimino)-2-phenylethyl]oxy}benzyl)oxy]phenyl}propanoic acid]"
5,> 100,"CO/N=C(\COc1ccc(COc2ccc(CCC(N)=O)cc2)cc1)c1ccccc1 [Compound 120, 3-{4-[(4-{[(2Z)-2-(Methoxyimino)-2-phenylethyl]oxy}benzyl)oxy]phenyl}propanamide]"
6,> 100,"CO/N=C(\COc1ccc(COc2ccc(/C(CC(=O)O)=N\OCc3ccccc3)cc2)cc1)c1ccccc1 [Compound 122, (3E,3Z)-3-[(Benzyloxy)imino]-3-{4-[(4-{[(2Z)-2-(methoxyimino)-2-phenylethyl]oxy}benzyl)oxy]phenyl}propanoic acid]"
7,> 100,"CO/N=C(\COc1ccc(COc2ccc(/C(CC(=O)O)=N\Oc3ccccc3)cc2)cc1)c1ccccc1 [Compound 123, (3E,3Z)-3-{4-[(4-{[(2Z)-2-(Methoxyimino)-2-phenylethyl]oxy}benzyl)oxy]phenyl}-3-(phenoxyimino) propanoic acid]"
8,> 100,"CO/N=C(\COc1ccc(COc2ccc(/C(CC(=O)O)=N\OC3CCCCC3)cc2)cc1)c1ccccc1 [Compound 124, (3E,3Z)-3-[(Cyclohexyloxy)imino]-3-{4-[(4-{[(2Z)-2-(methoxyimino)-2-phenylethyl]oxy}benzyl)oxy]phenyl}propanoic acid]"
